Where two headings read alike, the source gives them in different places.
Key:
Format in all cases: cell-based
[1] = test system: Streptococcus pneumoniae SP106 (ATCC 49619); test: MIC assay SP106; settings: Table 5
[2] = test system: Escherichia coli EC155 (Tetracycline-resistant, tet(A))
[3] = test system: Klebsiella pneumoniae KP153 (Tetracycline-resistant, tet(A), MDR, ESBL+); test: MIC assay KP153; settings: Table 5
[4] = test system: Klebsiella pneumoniae KP457 (2009 ESBL+, CTX-M, OXA); test: MIC assay KP457
[5] = test system: Proteus mirabilis PM385 (Urine ESBL+ isolate); test: MIC assay PM385
[6] = test system: Pseudomonas aeruginosa PA555 (ATCC BAA-47, wild type strain PAO1); test: MIC assay PA555
[7] = test system: Pseudomonas aeruginosa PA556 (Multiple-Mex efflux pump knockout strain)
[8] = test system: Acinetobacter baumannii AB250 (Cystic fibrosis isolate, MDR); test: MIC assay AB250
[9] = test system: Stenotrophomonas maltophilia SM256 (Cystic fibrosis isolate, MDR); test: MIC assay SM256
[10] = test system: KP194 7E+05; test: MIC assay KP194; settings: Table 5
Description: The assays were run as follows.

[11] = test system: Staphylococcus aureus SA161 (HA-MRSA, tetracycline-resistant, tet(M)); test: MIC assay SA161
[12] = test system: Enterococcus faecalis EF159 (Tetracycline-resistant, tet(M)); test: MIC assay EF159; settings: Table 5
[13] = test system: Enterococcus faecalis EF327 (Wound isolate (US) tet(M)); test: MIC assay EF327
[14] = test system: Enterococcus faecium EF404 (Blood isolate (US) tet(M)); test: MIC assay EF404
[15] = test system: Streptococcus pneumoniae SP160 (Tetracycline-resistant, tet(M)); test: MIC assay SP160
[16] = test system: Escherichia coli EC107 (ATCC 25922); test: MIC assay EC107
[17] = test system: Enterobacter cloacae EC603 (Urine isolate (Spain)); test: MIC assay EC603
[18] = test system: Burkholderia cenocepacia BC240 (Cystic fibrosis isolate, MDR); test: MIC assay BC240
[19] = test system: Pseudomonas aeruginosa PA1145 (Strain used in murine pneumonia model); test: MIC assay PA1145; settings: control compounds, numeric

CN(C)[C@@H]1C(O)=C(C(N)=O)C(=O)[C@@]2(O)C(O)=C3C(=O)c4c(O)cccc4C[C@H]3C[C@@H]12 [Sancycline, sancycline]
0.25 µg/mL: MIC SP106 49619 [1]
8 µg/mL: MIC ([4]; Klebsiella pneumoniae, read-out: MIC KP457 CTX-M-15) | MIC KP457 CTX-M-15 ([4]; Table 6) | MIC KP457 CTX-M-15 ([4]; Table 7) | MIC PM385 ([5]; Table 7) | MIC PM385 ([5]; control compounds, numeric)
16 µg/mL: MIC AB250 ([8]; Table 5) | MIC AB250 ([8]; Table 6) | MIC AB250 ([8]; Table 7)
32 µg/mL: MIC EC155 tetA ([2]; Table 5) | MIC EC155 tetA ([2]; Table 6) | MIC EC155 tetA ([2]; Table 7) | MIC EC155 tetA ([2]; control compounds, numeric) | MIC KP153 tetA [3] | MIC PA555 BAA-47 ([6]; Table 7) | MIC PA555 BAA-47 ([6]; control compounds, numeric) | MIC [10]
1 µg/mL: MIC PA556 ([7]; Table 5) | MIC PA556 ([7]; Table 6) | MIC PA556 ([7]; Table 7) | MIC SM256 ([9]; Table 5) | MIC SM256 ([9]; Table 6) | MIC SM256 ([9]; Table 7)

CN(C)c1ccc(O)c2c1C[C@H]1C[C@H]3[C@H](N(C)C)C(O)=C(C(N)=O)C(=O)[C@@]3(O)C(O)=C1C2=O [Minocycline, minocycline]
0.015 µg/mL: MIC SP106 49619 [1]
32 µg/mL: MIC EF327 tetM ([13]; Table 7) | MIC EF327 tetM ([13]; control compounds, numeric) | MIC [10]
16 µg/mL: MIC EF159 tetM [12] | MIC PM385 ([5]; Table 7) | MIC PM385 ([5]; control compounds, numeric) | MIC PA555 BAA-47 ([6]; control compounds, numeric)
33 µg/mL: MIC EC603 tetA ([17]; Table 6) | MIC EC603 tetA ([17]; Table 7)
8 µg/mL: MIC SA161 tetM ([11]; Table 5) | MIC SA161 tetM ([11]; Table 6) | MIC SA161 tetM ([11]; Table 7) | MIC SA161 tetM ([11]; control compounds, numeric) | MIC EF404 tetM ([14]; Table 7) | MIC EF404 tetM ([14]; control compounds, numeric) | MIC EC155 tetA ([2]; Table 5) | MIC EC155 tetA ([2]; Table 6) | MIC KP153 tetA [3] | MIC KP457 CTX-M-15 ([4]; Table 6) | MIC KP457 CTX-M-15 ([4]; Table 7) | MIC KP457 CTX-M-15 ([4]; control compounds, numeric) | MIC AB250 ([8]; Table 5) | MIC AB250 ([8]; Table 6) | MIC AB250 ([8]; Table 7) | MIC BC240 ([18]; Table 5) | MIC BC240 ([18]; Table 6) | MIC BC240 ([18]; Table 7)
2 µg/mL: MIC SP160 tetM ([15]; Table 4) | MIC SP160 tetM ([15]; Table 5) | MIC SP160 tetM ([15]; Table 7) | MIC SP160 tetM ([15]; control compounds, numeric)
0.5 µg/mL: MIC EC107 25922 ([16]; Table 5) | MIC EC107 25922 ([16]; control compounds, numeric) | MIC SM256 ([9]; Table 5) | MIC SM256 ([9]; Table 6) | MIC SM256 ([9]; Table 7)

CN(C)c1cc(NC(=O)CNC(C)(C)C)c(O)c2c1C[C@H]1C[C@H]3[C@H](N(C)C)C(O)=C(C(N)=O)C(=O)[C@@]3(O)C(O)=C1C2=O [Tigecycline, tigecycline]
8 µg/mL: MIC AB250 ([8]; Table 5) | MIC AB250 ([8]; Table 6) | MIC AB250 ([8]; Table 7) | MIC [10]
4 µg/mL: MIC PM385 ([5]; Table 7) | MIC PM385 ([5]; control compounds, numeric)
1 µg/mL: MIC KP153 tetA [3] | MIC KP457 CTX-M-15 ([4]; Table 6) | MIC KP457 CTX-M-15 ([4]; Table 7) | MIC KP457 CTX-M-15 ([4]; control compounds, numeric) | MIC SM256 ([9]; Table 5) | MIC SM256 ([9]; Table 6) | MIC SM256 ([9]; Table 7)
0.5 µg/mL: MIC EC155 tetA ([2]; Table 5) | MIC EC155 tetA ([2]; Table 6) | MIC EC155 tetA ([2]; Table 7) | MIC EC155 tetA ([2]; control compounds, numeric)
0.016 µg/mL: MIC SP106 49619 [1]
16 µg/mL: MIC PA555 BAA-47 ([6]; Table 7) | MIC PA555 BAA-47 ([6]; control compounds, numeric) | MIC PA1145 Vivisource [19]
0.25 µg/mL: MIC PA556 ([7]; Table 5) | MIC PA556 ([7]; Table 6) | MIC PA556 ([7]; Table 7)

Source: US9573895B2, “Tetracycline compounds” (Tetraphase Pharmaceuticals, Inc., priority 2012, dated 2017)
